According to patent US6204295A, “Antioxidant compounds” (Orion Corporation, priority 1996, dated 2001):
Where two headings read alike, the source gives them in different places.

Legend:
[1] = test system: lipid peroxidation in rat liver microsomes; assay: Inhibition of t-butylhydroperoxide-induced lipid peroxidation in rat liver microsomes (luminol chemiluminescence); format: biochemical, rat (Sprague-Dawley); details: for IC50: t-BuOOH, rat liver microsomes 1.5 μg protein/ml, pH 10.2, 33° C., about 45 min, read-out: IC50 values for the inhibition of microsomal lipid peroxidation, initiated by t-Butylhydroperoxide; for antioxidant potency in the t-BuOOH test compared with butylated hydroxyanisole: in words, versus butylated hydroxyanisole
Procedure: (§2) Adult male Sprague-Dawley rats were decapitated, and the liver was excised and chilled in ice-cold 0.25 M sucrose solution. A 20% (w/v) liver homogenate was prepared in the sucrose solution (0° C.) with a homogenizer. Microsomes were prepared from the postmitochondrial (12000×g for 10 min at 4° C.) supernatant fluid by centrifugation (105000×g for 10 min at 4° C.).
(§3) The antioxidant properties of the compounds were estimated by their potency to inhibit t-butylhydroperoxide (t-BuOOH) or ascorbate/ADP-FeCl3 -induced lipid peroxidation in rat liver microsomes in vitro. In the t-BuOOH assay the buffer (50 mM sodium carbonate, pH 10.2, with 0.1 mM EDTA) was pipetted in a volume of 0.8 ml in the luminometer cuvette. 20 μl of diluted rat liver microsomes (final concentration 1.5 μg protein/ml) was added, followed by 6 μl of luminol (0.5 mg/ml) and test compounds. The reaction was initiated by 0.05 ml of 0.9 mM t-BuOOH at 33° C. The chemiluminescence was measured for about 45 min and the area under the curve was calculated. In the ascorbate/ADP-FeCl3 assay microsomes (final concentration 1.2 mg protein/ml) in 20 mM phosphate buffer, including 90 mM KCl, were incubated for 20 min at 37° C. in the presence of ascorbate (0.5 mM final concentration; pH of the buffer 6.0), ADP and FeCl3 (final concentrations 0.85 and 0.05 mM, respectively) and test compounds. Total incubation volume was 0.5 ml. The incubation was stopped by addition of 0.5 ml of 30% trichloroacetic acid plus 0.05 ml 2% butylated hydroxytoluene in ethanol. The extent of lipid peroxidation was estimated by the amount of thiobarbituric acid (TBA) reactive material formed.
(§4) IC50 value means concentration of test compound that inhibits lipid peroxidation by 50%.

[2] = molecular target: T1, NADPH oxidase of the neutrophils (Homo sapiens, UniProt P04839); assay: Inhibition of reactive oxygen production (oxidative burst) by PMA-activated neutrophils, luminol enhanced chemiluminescence; format: cell-based; details: for inhibition at 1000 µM: read-out: Inhibition of NADPH oxidase of the neutrophils at 1 mM
T1 construct: Neutrophils were isolated from 30 ml freshly drawn heparinized whole blood; endogenous in cells; host or cells: neutrophils isolated from freshly drawn heparinized whole blood
T1 sequence (P04839 2-570 limits assumed): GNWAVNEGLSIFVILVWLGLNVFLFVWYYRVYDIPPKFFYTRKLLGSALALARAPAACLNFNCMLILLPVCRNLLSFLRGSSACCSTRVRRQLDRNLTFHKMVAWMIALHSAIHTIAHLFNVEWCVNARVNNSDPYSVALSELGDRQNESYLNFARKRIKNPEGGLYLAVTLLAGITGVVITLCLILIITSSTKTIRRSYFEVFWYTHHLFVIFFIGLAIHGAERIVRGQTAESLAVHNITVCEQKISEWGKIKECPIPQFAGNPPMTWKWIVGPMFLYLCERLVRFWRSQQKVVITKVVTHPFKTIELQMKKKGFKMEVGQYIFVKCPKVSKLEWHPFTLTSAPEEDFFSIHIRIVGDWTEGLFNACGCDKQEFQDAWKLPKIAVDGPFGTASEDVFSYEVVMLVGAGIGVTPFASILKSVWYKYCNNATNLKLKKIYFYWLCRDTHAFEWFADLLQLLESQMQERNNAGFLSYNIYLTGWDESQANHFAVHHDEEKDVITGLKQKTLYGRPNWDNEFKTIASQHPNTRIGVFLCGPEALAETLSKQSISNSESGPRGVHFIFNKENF
T1 sequence (P13498 2-195 partner limits assumed): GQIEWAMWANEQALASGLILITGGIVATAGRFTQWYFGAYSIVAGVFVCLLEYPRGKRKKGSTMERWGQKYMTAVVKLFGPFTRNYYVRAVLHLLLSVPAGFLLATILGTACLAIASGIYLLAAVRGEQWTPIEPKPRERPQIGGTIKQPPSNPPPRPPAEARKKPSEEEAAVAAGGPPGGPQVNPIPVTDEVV
Procedure: Neutrophils were isolated from 30 ml freshly drawn heparinized whole blood, after dextran sedimentation of erythrocytes for 30 min. The leucocyte rich plasma was layered over an equal volume of Percoll (Sigma) and centrifuged at 400 g for 15 min. […] Neutrophils were washed with PBS (pH 7.1) and centrifuged at 200 g for 10 min. Cells were resuspended in fresh HBS (containing […], 0.4 g KCl, 0.06 g Na2 HPO4×2H2 O, 0.06 g KH2 PO4, 0.1 g MgSO4×7H2 O and 1 g glucose in 1000 ml of distilled water; pH adjusted to 7.4 by 7% NaHCO3) and counted before use.
One ml of cell suspension (final cell count 10^6 cells/ml) and the test compound was placed in cuvettes. Production of reactive oxygen by neutrophils ("oxidative burst") was stimulated by addition of phorbol-myristate-acetate (PMA; final concentration 2 μM). The luminol enhanced chemiluminescence was recorded.

[3] = test system: lipid peroxidation in rat liver microsomes; assay: Inhibition of ascorbate/ADP-FeCl3-induced lipid peroxidation in rat liver microsomes (TBA reactive material); format: biochemical, rat (Sprague-Dawley); details: rat liver microsomes 1.2 mg protein/ml, pH 6.0, 20 min at 37° C., read-out: IC50 values for the inhibition of microsomal lipid peroxidation, initiated by Ascorbate/ADP-FeCl3
Procedure: as §2, §3, §4

[4] = test system: serum lipid peroxides (TBA-reactive material); assay: In vivo serum lipid peroxides, TBA-reactive material; design: species or system rat (female Sprague-Dawley); details: rats; daily oral gavage 12 and 48 mg/kg; 2 days to 12 months; FIG. 2
Procedure: (§1) Test compound was given to six-week old female Sprague-Dawley rats daily by oral gavage at doses of 12 and 48 mg/kg for 12 months. The vehicle, carboxymethyl cellulose (0.5%), was given to control animals. Five rats per dose group were killed after 2 days, 5 weeks, 3, 6 and 12 months of dosing. Further groups were allowed to recover for 13 weeks without treatment after 6 and 12 months' dosing. The serum levels of lipid peroxides were measured by two different methods (diene conjugation and TBA-reactive material). For the measurement of diene conjugation, lipids extracted from serum samples (100 μl) by chloroform/methanol (2:1), dried under nitrogen and redissolved in cyclohexane, were analyzed spectrophotometrically (at 234 nm). For the analysis of TBA-reactive material serum samples (100 μl) were diluted in phosphate buffer and heated together with a TBA solution ([…]) in a boiling water bath for 15 min. The tubes were cooled, and the absorbances measured at 535 nm.

[5] = test system: serum lipid peroxides (diene conjugation); assay: In vivo serum lipid peroxides, diene conjugation; design: species or system rat (female Sprague-Dawley); details: rats; daily oral gavage 12 and 48 mg/kg; 2 days to 12 months; FIG. 1
Procedure: as §1

[6] = PMA 2 μM, 10^6 cells/ml, read-out: IC50, inhibition of NADPH oxidase of the neutrophils

Row | Compound | IC50 [1] [µM] | IC50 [3] [µM] | inhibition at 1000 µM ([2]; 1 mM, PMA 2 μM, 10^6 cells/ml) [%] | also measured
1 | C[C@]12CC[C@@H]3c4ccc(O)cc4CC[C@H]3[C@@H]1CC[C@@H]2O [17β-estradiol] | 4.6 | 300 |  | Inhibition of NADPH oxidase of the neutrophils at 1 mM ([2]; 1 mM, PMA 2 μM, 10^6 cells/ml): no effect
2 | CN(C)CCOc1ccc(/C(=C(/CCCl)c2ccccc2)c2ccccc2)cc1 [Compound 1, 4-chloro-1,2-diphenyl-1-[4-[2-(N,N-dimethylamino)ethoxy]phenyl]-1-butene] | 450 | 18 |  | effect on serum TBA-reactive material [4]: effective in decreasing both diene conjugation and TBA-reactive material in rats; effect on serum diene conjugation [5]: effective in decreasing both diene conjugation and TBA-reactive material in rats; IC50 [2]: 2170 nM; inhibition at 1000 µM [2]: > 99%
3 | CN(C)CCOc1ccc(/C(=C(\CCCl)c2ccccc2)c2ccccc2)cc1 [Compound 5, 4-chloro-1,2-diphenyl-1-[4-[2-(N,N-dimethylamino)ethoxy]phenyl]-1-butene] | 410 | 36 |  | 
4 | COc1ccc(O)c(C(C)(C)C)c1 [butylated hydroxyanisole] | 1.1 | 0.2 |  | 
5 | CC/C(=C(/CC)c1ccc(O)cc1)c1ccc(O)cc1 [diethylstilbestrol] |  |  |  | IC50 [2]: 8000 nM; inhibition at 1000 µM [2]: > 99%

The next lines start with results.

Row | IC50 [1] [µM] | IC50 [3] [µM] | inhibition at 1000 µM ([2]; 1 mM, PMA 2 μM, 10^6 cells/ml) [%] | Compound | also measured
6 | 0.18 | 8 | > 99 | CN(C)CCOc1ccc(/C(=C(/CCCl)c2ccccc2)c2ccc(O)cc2)cc1 [Compound 2, 4-chloro-1-(4-hydroxyphenyl)-1-[4-[2-(N,N-dimethylamino)ethoxy]phenyl]-2-phenyl-1-butene] | antioxidant potency in the t-BuOOH test compared with butylated hydroxyanisole [1]: even stronger than that of the known synthetic antioxidant butylated hydroxyanisole; IC50 [2, 6]: 2120 nM
7 | 27 | 31 |  | CNCCOc1ccc(/C(=C(/CCCl)c2ccccc2)c2ccc(O)cc2)cc1 [Compound 3, 4-chloro-1-(4-hydroxyphenyl)-1-[4-[2-(N-methylamino)ethoxy]phenyl]-2-phenyl-1-butene] | 
8 | 0.38 | 3 | > 99 | CN(C)CCOc1ccc(/C(=C(/CCI)c2ccccc2)c2ccccc2)cc1 [Compound 4, 4-iodo-1,2-diphenyl-1-[4-[2-(N,N-dimethylamino)ethoxy]phenyl]-1-butene] | antioxidant potency in the t-BuOOH test compared with butylated hydroxyanisole [1]: even stronger than that of the known synthetic antioxidant butylated hydroxyanisole; IC50 [2, 6]: 2320 nM
9 |  |  | 59 | Cc1c(C)c2c(c(C)c1O)CCC(C)(C(=O)O)O2 (stereo not shown) [Trolox] | Inhibition of NADPH oxidase of the neutrophils at 1 mM ([2]; 1 mM, PMA 2 μM, 10^6 cells/ml): no effect
10 | 2 | 43 |  | Cc1c(C)c2c(c(C)c1O)CCC(C)(CCCC(C)CCCC(C)CCCC(C)C)O2 (stereo not drawn) [α-tocopherol] | 
